The source of these data is patent publication US5973201A, “Phenylacetamide derivatives” (Korea Research Institute of Chemical Technology, priority 1995, dated 1999).

The term ED50 denotes the dose at which the effect has come halfway, by size or by number of responders.

The nature of data set [1]: phenyl-1,4-benzoquinone (PBQ) induced writhing test (analgesic effect). The class given is in vivo, KTC-ICR rats. Particulars: Mus musculus. As to the method: (§1) The physiological activities of the compounds of the present invention prepared according to Example 1 to 6 were measured by employing acetic acid or phenyl-1,4-benzoquinone (PBQ) induced writhing test method.
(§2) In case of the acetic acid-induced writhing test, KTC-ICR […] (available from animal laboratory of Korea Research Institute of Chemical Technology) each having a body weight of 20-25 g were used, while in the PBQ induced writhing test, KTC-ICR […] each having a body weight of 14-18 g were employed. A group consisting of 8 mice which had been adjusted to the testing environment for a week were used in determining the effects of each dosage of a test compound. Water and food were given frelly and illumination was maintained on a 12-hour cycle.
(§3) Test solutions were prepared by dissolving one of the final products obtained in Examples 1 to 6 in distilled water containing 1% of Tween and 5% ethanol in a pre-determined concentration. The test solutions were used after serial dilution depending on each dosage.
(§4) The test solutions were […] administered in a dose of 0.1 ml per 10 g of a body weight. 0.1 ml of 1% acetic acid solution or 0.1 ml of 0.02% PBQ solution was administered […] or after 30 minutes in case of subcutaneous injection.
(§5) Then, the number of writhings generated during a period of 10 minutes after 3 minutes from the administration of acetic acid was measured. in case of the administration of PBQ, the number of writhings generated during a period of 5 minutes after 5 minutes from the administration was measured.
(§6) For a comparison purpose, initially, distilled water containing 1% of Tween and 5% ethanol alone was administered to the control group. Then, the control groups were subjeted the same procedure as the test groups.
(§7) The number of writhings suffered by the test group was compared with that of the control group; and the analgesic effect was measured in terms of the percentage of inhibition of writhing (I.W.). [formula] wherein: A is the number of writhings suffered by the control group; and
(§8) B is the number of writhings suffered by the test group.
(§9) I.W. values for each dosage were calculated by employing regression analysis. The amount of a test compound which is required in reducing the frequency of writhings to the 50% level of that generated by the control group, i.e., B=0.5A or I.W.=50%, is designated as ED50 (mg/kg of a body weight). Therefore, a lower value of ED50 represents a higher analgesic effect of the tested compound.
On the technique in general: In writhing tests, fewer writhes than in controls are read as antinociception.

Data set [2] is described as follows: acetic acid-induced writhing test (analgesic effect). The class given is in vivo, KTC-ICR rats. Conditions: Mus musculus. As to the method:
as §1, §2, §3, §4, §5, §6, §7, §8, §9

The nature of data set [3]: Toxicity test: behavioral changes in the test animals. The data set is classed as in vivo. Conditions: score; for Convulsion / Salivation / Urination: normal value 0; for Dyspnoea / Ptosis / Sedation / Vasodilation: normal value 4.
Setting [4] is: acetic acid, dose reducing writhing to 50% of control, read-out: ED50.
Setting [5] is: PBQ, dose reducing writhing to 50% of control, read-out: ED50.

The compound `CC(=O)Oc1ccccc1C(=O)O` [Aspirin, acetylsalicylic acid] returned an ED50 in data set [1] of 71.4 mg/kg.
For the compound `CCCCCCCC/C=C\CCCCCCCC(=O)NCc1ccc(OCCN)c(OC)c1` [NE-21610, reference compound], the ED50 in data set [2] (setting [4]) is over 300 mg/kg; in data set [1] (setting [5]), 38.3 mg/kg.
Regarding `CC(C)Cc1ccc(C(C)C(=O)O)cc1` (centres unmarked) [Ibuprofen], the ED50 in data set [1] (setting [5]) amounted to 11 mg/kg.
In data set [3] (0.25 mg/kg), `COc1cc(CC(=O)NCCCc2ccc(C)c(C)c2)ccc1OCCN` [Control, reference compound] showed a Convulsion of 1, a Salivation of 0, a Urination of 0 and a Dyspnoea of 5. In data set [3] (0.25 mg/kg), this compound yielded a Ptosis of 6, a Sedation of 6 and a Vasodilation of 5. In data set [3] (0.5 mg/kg), this compound returned a Convulsion of 1, a Salivation of 0, a Urination of 0 and a Dyspnoea of 6. For the same compound, in data set [3] (0.5 mg/kg), the Ptosis is given as 7, the Sedation stood at 7 and the Vasodilation stood at 5. Moreover, in data set [3] (1 mg/kg), the Convulsion turned out to be 1, the Salivation worked out at 0, the Urination turned out to be 0 and the Dyspnoea is 6. In data set [3] (1 mg/kg), this compound registered a Ptosis of 7, a Sedation of 7 and a Vasodilation of 6.
Regarding `CCCCCCCC/C=C\CCCCCCCC(=O)NCc1ccc(O)c(OC)c1` [NE-19550, Nvanillyloleamide, reference compound], in data set [2], the ED50 amounted to 15.7 mg/kg.
Take `COc1cc(CC(=O)NCCCOc2ccc(C)c(C)c2)ccc1OCCN` [Example 2, N-{3-(3,4-dimethylphenoxy)propyl}-4-(2-aminoethoxy)-3-methoxyphenylacetamide]: in data set [1] (setting [5]), the ED50 turned out to be 7.02 mg/kg. In data set [3] (2.5 mg/kg), this compound came in with a Convulsion of 0, a Salivation of 0, a Urination of 0 and a Dyspnoea of 4. In data set [3] (2.5 mg/kg), the Ptosis is reported as 4, the Sedation turned out to be 4 and the Vasodilation was 4. Further, in data set [3] (5 mg/kg), the Convulsion is on record as 0, the Salivation was 0, the Urination amounted to 0 and the Dyspnoea is reported as 5. In data set [3] (5 mg/kg), this compound returned a Ptosis of 6, a Sedation of 6 and a Vasodilation of 5. For the same compound, in data set [3] (10 mg/kg), the Convulsion stood at 0, the Salivation came to 0, the Urination is recorded as 0 and the Dyspnoea turned out to be 7. In data set [3] (10 mg/kg), this compound came in with a Ptosis of 6, a Sedation of 7 and a Vasodilation of 6.
With `COc1cc(CC(=O)NCCSc2ccc(C)c(C)c2)ccc1OCCN` [Example 6, N-{2-(3,4-dimethylthiophenoxy)ethyl}-4-(2-aminoethoxy)-3-methoxyphenylacetarnide], in data set [2] (setting [4]), the ED50 amounted to 0.48 mg/kg. In data set [3] (0.31 mg/kg), this compound gave a Convulsion of 0, a Salivation of 0, a Urination of 0 and a Dyspnoea of 4. In data set [3] (0.31 mg/kg), this compound showed a Ptosis of 4, a Sedation of 4 and a Vasodilation of 4. Moreover, in data set [3] (0.63 mg/kg), the Convulsion is reported as 0, the Salivation amounted to 0, the Urination was determined as 0 and the Dyspnoea was 4. Besides, in data set [3] (0.63 mg/kg), the Ptosis was determined as 5, the Sedation was found to be 6 and the Vasodilation is reported as 4. In data set [3] (1.25 mg/kg), this compound registered a Convulsion of 0, a Salivation of 0, a Urination of 0 and a Dyspnoea of 6. Moreover, in data set [3] (1.25 mg/kg), the Ptosis worked out at 6, the Sedation worked out at 6 and the Vasodilation is 5.
In the case of `COc1cc(CC(=O)NCCOCc2ccc(C)c(C)c2)ccc1O` [Example 4, N-{2-(3,4-dimethylbenzyloxy)ethyl}-4-hydroxy-3-methoxyphenylacetamide], the ED50 in data set [2] (setting [4]) turned out to be 2.08 mg/kg. In data set [3] (1.25 mg/kg), this compound displayed a Convulsion of 0, a Salivation of 0, a Urination of 0 and a Dyspnoea of 4. Moreover, in data set [3] (1.25 mg/kg), the Ptosis came to 4, the Sedation worked out at 4 and the Vasodilation came to 4. In data set [3] (2.5 mg/kg), this compound displayed a Convulsion of 0, a Salivation of 0, a Urination of 0 and a Dyspnoea of 5. In data set [3] (2.5 mg/kg), the Ptosis is 6, the Sedation was 6 and the Vasodilation is given as 4. Also, in data set [3] (5 mg/kg), the Convulsion was 0, the Salivation is 0, the Urination was found to be 0 and the Dyspnoea was 6. In data set [3] (5 mg/kg), this compound displayed a Ptosis of 7, a Sedation of 7 and a Vasodilation of 5.
In the case of `COc1cc(CC(=O)NCCSc2ccc(C)cc2)ccc1OCCN` [Example 5, N-{2-(4-methylthiophenoxy)ethyl}-4-(2-aminoethoxy)-3-methoxyphenylacetamide], in data set [2] (setting [4]), the ED50 turned out to be 0.84 mg/kg. Besides, in data set [3] (0.63 mg/kg), the Convulsion is given as 0, the Salivation is 0, the Urination is reported as 0 and the Dyspnoea is 4. In data set [3] (0.63 mg/kg), this compound had a Ptosis of 4, a Sedation of 4 and a Vasodilation of 4. Also, in data set [3] (1.25 mg/kg), the Convulsion is on record as 0, the Salivation worked out at 0, the Urination turned out to be 0 and the Dyspnoea is 6. In data set [3] (1.25 mg/kg), this compound yielded a Ptosis of 6, a Sedation of 6 and a Vasodilation of 4. Moreover, in data set [3] (2.5 mg/kg), the Convulsion amounted to 0, the Salivation is reported as 0, the Urination is listed as 0 and the Dyspnoea worked out at 6. In addition, in data set [3] (2.5 mg/kg), the Ptosis was 6, the Sedation stood at 7 and the Vasodilation worked out at 5.
`COc1cc(CC(=O)NCCOCc2ccc(C)c(C)c2)ccc1OCCN` [Example 3, N-{2-(3,4-dimethylbenzyloxy)ethyl}-4-(2-aminoethoxy)-3-methoxyphenylacetamide]: in data set [1] (setting [5]), the ED50 is 10.9 mg/kg. In data set [3] (5 mg/kg), the Convulsion was 0, the Salivation was 0, the Urination is 0 and the Dyspnoea is reported as 4. In data set [3] (5 mg/kg), the Ptosis worked out at 4, the Sedation is recorded as 4 and the Vasodilation was found to be 4. In data set [3] (10 mg/kg), this compound gave a Convulsion of 0, a Salivation of 0, a Urination of 0 and a Dyspnoea of 4. In data set [3] (10 mg/kg), this compound registered a Ptosis of 4, a Sedation of 4 and a Vasodilation of 4. In data set [3] (20 mg/kg), the Convulsion worked out at 0, the Salivation was determined as 0, the Urination was found to be 0 and the Dyspnoea is given as 4. Further, in data set [3] (20 mg/kg), the Ptosis amounted to 5, the Sedation came to 5 and the Vasodilation worked out at 4.
For `COc1ccc2cc([C@H](C)C(=O)O)ccc2c1` [Naproxen], in data set [1] (setting [5]), the ED50 was determined as 17.1 mg/kg.
For `CCCCC1C(=O)N(c2ccccc2)N(c2ccccc2)C1=O` [Phenylbutazone], in data set [1] (setting [5]), the ED50 stood at 79.8 mg/kg.
In data set [2], `COc1cc(CNC(=O)CCCC/C=C/C(C)C)ccc1O` [Capsaicin, N-vanillyl-trans-8-methyl-6-nonenamide, reference compound] came in with a median effective dose (ED50) of 1.34 mg/kg.
Turning to `COc1cc(CC(=O)NCCOc2ccc(C)c(C)c2)ccc1OCCN` [Example 1, N-{2-(3,4-dimethylphenoxy)ethyl}-4-(2-aminoethoxy)-3-methoxyphenylacetamide], the median effective dose (ED50) in data set [1] (setting [5]) came to 9.53 mg/kg.
